Assay results published in patent US20250145589A1, “PYRIDINE DERIVATIVE AND USE THEREOF” (SICHUAN HUIYU PHARMACEUTICAL CO., LTD., priority 2021, published 2025).
Read-outs that look alike come from different tables or passages of the source.

Experiments:
PI3Kδ = PI3Kδ (Homo sapiens (Human), UniProt O00329); test: Inhibition of PI3Kδ efficacy assay (ADP-Glo kinase assay); assay type: biochemical; details: read-out: PI3Kδ inhibitory activity (IC50)
How it was run: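 Luminescent ADP-Glo readout of PI3Kδ: after a 60 min RT reaction with PI/ATP substrate, ATP depletion (40 min) and ADP detection (40 min) steps followed. Compounds tested as eight five-fold serial dilutions; inhibition rates fitted to log(inhibitor) vs. response, variable slope, for IC50.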

KRAS^G12C-SOS1 = KRAS^G12C-SOS1 (Homo sapiens (Human), UniProt P01116, G12C); test: HTRF KRAS G12C/SOS1 binding assay; details: Table 5
Sequence of KRAS^G12C-SOS1 (P01116-2 other isoform, or with tags, fused parts or gaps G12C): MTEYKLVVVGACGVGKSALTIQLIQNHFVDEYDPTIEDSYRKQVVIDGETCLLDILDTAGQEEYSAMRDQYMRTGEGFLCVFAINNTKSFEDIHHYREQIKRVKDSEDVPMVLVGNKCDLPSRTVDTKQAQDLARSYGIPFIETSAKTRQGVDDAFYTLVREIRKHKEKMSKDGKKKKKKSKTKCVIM
Procedure: Initially, a 2 mM stock solution of the test compound (dissolved in DMSO) was serially diluted in five-fold concentrations using DMSO to obtain eight working solutions 1 (200×). Subsequently, each of the eight working solutions 1 was further diluted in a 20-fold gradient by adding 5 μL into 95 μL of Diluent buffer, mixed completely with vortex mixer, resulting in eight working solutions 2 (10×). […] Subsequently, 5 μL of Anti-tag 1-Tb^3+ stock solution and 5 μL of Anti-tag2-XL665 were added to each well, mixed, and incubated at 4° C. for 3 hours. Remove the plate and read on an HTRF® compatible reader, with the excitation light wavelength set at 337 nm and readings recorded at 620 nm and 665 nm. The data results were presented as the ratio of the 665 nm signal value to the 620 nm signal value for each well, calculated as follows: […]. The inhibition rate was calculated using the following formula: […]
Data were analyzed using GraphPad Prism with log (inhibitor) vs. response-Variable Slope (four parameters) fitting calculations for IC50 values.

[1] = system: NCI-H358 cells (KRAS G12C mutant); test: NCI-H358 cell proliferation inhibition (CellTiter-Glo); assay type: cell-based; details: read-out: NCI-H358 (IC50)
[2] = system: MIA PaCa-2 cells (KRAS G12C mutant); test: MIA PaCa-2 cell anti-proliferation (CellTiter-Glo); assay type: cell-based; details: MIA Paca-2 cells, 3 days, Table 7, read-out: MIA PaCa-2 (IC50)
How it was run: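 Viable-cell luminescence (CellTiter-Glo, ≥30 min at 25 °C) measured after a 3-day, 37 °C exposure to compounds at 9 points, 4-fold spaced, in DMEM containing 10% FBS plus 2.5% horse serum. IC50 derived versus no-inhibitor wells.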

[3] = system: NCI-H358-AMGR drug-resistant cell line; test: NCI-H358-AMGR drug-resistant cell proliferation inhibitory activity test; assay type: cell-based; details: NCI-H358-AMGR drug-resistant cells, 3 days incubation, CellTiter-Glo
How it was run: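 Luminescent CellTiter-Glo read-out after 3-day, 37° C compound exposure (8 points, 5-fold series) of AMG510-resistant NCI-H358 cells plated at 4×10^3 per well.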

[4] = Homo sapiens, NCI-H358, 72 h, H358 cells (G12C mutation), 3 days, Table 6

Sequence of PI3Kδ (O00329 whole entry): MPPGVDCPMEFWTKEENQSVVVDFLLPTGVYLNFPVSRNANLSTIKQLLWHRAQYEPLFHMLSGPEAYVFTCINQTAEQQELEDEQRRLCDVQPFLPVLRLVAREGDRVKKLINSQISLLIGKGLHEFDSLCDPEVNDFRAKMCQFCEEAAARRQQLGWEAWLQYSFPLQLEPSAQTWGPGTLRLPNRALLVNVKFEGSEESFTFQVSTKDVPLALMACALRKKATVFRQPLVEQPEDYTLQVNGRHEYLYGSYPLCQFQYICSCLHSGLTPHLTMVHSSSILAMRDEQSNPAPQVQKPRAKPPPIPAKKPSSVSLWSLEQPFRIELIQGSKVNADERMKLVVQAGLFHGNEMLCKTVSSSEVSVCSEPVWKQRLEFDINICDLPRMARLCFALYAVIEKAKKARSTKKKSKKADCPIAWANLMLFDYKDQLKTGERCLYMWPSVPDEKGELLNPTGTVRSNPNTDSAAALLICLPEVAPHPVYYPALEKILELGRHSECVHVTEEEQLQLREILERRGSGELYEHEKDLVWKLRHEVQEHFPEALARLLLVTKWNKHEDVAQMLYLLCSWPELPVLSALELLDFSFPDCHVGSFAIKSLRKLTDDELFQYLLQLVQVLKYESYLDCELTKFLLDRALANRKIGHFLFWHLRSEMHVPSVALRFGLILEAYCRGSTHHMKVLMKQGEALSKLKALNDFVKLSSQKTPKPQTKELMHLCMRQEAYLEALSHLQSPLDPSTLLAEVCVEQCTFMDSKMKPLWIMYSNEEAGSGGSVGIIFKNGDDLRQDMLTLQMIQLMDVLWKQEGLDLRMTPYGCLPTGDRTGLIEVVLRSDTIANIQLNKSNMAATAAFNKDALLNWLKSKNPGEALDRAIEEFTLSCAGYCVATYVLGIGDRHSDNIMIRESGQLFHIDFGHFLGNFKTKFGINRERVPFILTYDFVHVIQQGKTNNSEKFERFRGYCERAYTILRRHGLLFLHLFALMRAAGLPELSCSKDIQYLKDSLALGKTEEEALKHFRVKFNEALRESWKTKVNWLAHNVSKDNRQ
Sequence of PI3Kδ (P27986 whole entry partner): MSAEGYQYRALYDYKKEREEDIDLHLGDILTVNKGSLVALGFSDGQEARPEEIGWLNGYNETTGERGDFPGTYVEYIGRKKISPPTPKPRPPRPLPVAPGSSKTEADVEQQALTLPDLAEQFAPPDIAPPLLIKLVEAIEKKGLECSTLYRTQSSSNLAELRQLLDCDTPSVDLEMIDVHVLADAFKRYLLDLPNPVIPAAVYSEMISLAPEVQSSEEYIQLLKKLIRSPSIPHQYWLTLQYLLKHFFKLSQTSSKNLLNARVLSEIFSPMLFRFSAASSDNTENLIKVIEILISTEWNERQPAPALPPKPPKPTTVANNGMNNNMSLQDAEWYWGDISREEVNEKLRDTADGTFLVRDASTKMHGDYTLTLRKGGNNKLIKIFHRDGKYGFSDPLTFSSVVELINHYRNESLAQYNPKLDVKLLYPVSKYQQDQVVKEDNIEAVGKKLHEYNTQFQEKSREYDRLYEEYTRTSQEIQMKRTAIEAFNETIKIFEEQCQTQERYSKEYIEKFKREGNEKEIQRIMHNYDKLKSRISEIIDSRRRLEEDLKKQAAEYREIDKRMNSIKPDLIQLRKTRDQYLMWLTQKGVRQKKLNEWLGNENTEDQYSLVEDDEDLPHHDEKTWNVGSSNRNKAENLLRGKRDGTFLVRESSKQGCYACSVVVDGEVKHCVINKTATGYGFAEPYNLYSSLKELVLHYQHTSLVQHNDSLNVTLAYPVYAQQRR

Row | SMILES | IC50 (PI3Kδ; Table 1) [nM] | IC50 (KRAS^G12C-SOS1) [nM] | IC50 [1, 4] [nM] | IC50 ([2]; Homo sapiens, 72 h) [nM] | IC50 ([3]; 72 h) [nM] | IC50 (PI3Kδ; Table 2) [nM] | IC50 [1] [nM] | IC50 [2] [nM] | IC50 [3] [nM] | IC50 (PI3Kδ; Table 4) [nM]
1 | COc1ncc(-c2ccc3ncnc(N4CCN(C(=O)/C=C/C(C)=O)CC4)c3c2)cc1NS(=O)(=O)c1ccc(F)cc1F [Example 6, (E)-2,4-difluoro-N-(2-methoxy-5-(4-(4-(4-oxopent-2-enoyl)piperazin-1-yl)quinazoline-6-yl)pyridin-3-yl)benzenesulfonamide] | 10.9 | 323 | 18 | 17.1 | 15.6 |  |  |  |  | 
2 | C=CC(=O)N1CCN(c2ncnc3ccc(-c4cnc(OC)c(NS(=O)(=O)c5ccc(F)cc5F)c4)cc23)[C@@H](C)C1 [Example 7, (S)—N-(5-(4-(4-acryloyl-2-methylpiperazin-1-yl)quinazolin-6-yl)-2-methoxypyridin-3-yl)-2,4-difluorobenzenesulfonamide] | 12 |  | 44 | 32.3 | 41.7 |  |  |  |  | 
3 | COc1ncc(-c2ccc3ncnc(N4CCN(C(=O)/C=C/n5ccnn5)CC4)c3c2)cc1NS(=O)(=O)c1ccc(F)cc1F [Example 10, (E)-N-(5-(4-(4-(3-(1H-1,2,3-triazol-1-yl)acryloyl)piperazin-1-yl)quinazolin-6-yl)-2-methoxypyridin-3-yl)-2,4-difluorobenzenesulfonamide] | 16.7 |  | 24.6 | 83.2 | 86.6 |  |  |  |  | 
4 | COc1ncc(-c2ccc3ncnc(N4C[C@@H](C)N(C(=O)/C=C/C(C)=O)C[C@@H]4C)c3c2)cc1NS(=O)(=O)c1ccc(F)cc1F [Example 15, N-(5-(4-((2S,5R)-2,5-dimethyl-4-((E)-4-oxopent-2-enoyl)piperazin-1-yl)quinazolin-6-yl)-2-methoxypyridin-3-yl)-2,4-difluorobenzenesulfonamide] | 130 | 558 | 19.9 | 71.1 | 62.1 |  |  |  |  | 
5 | CCCC(=O)/C=C/C(=O)N1CCN(c2ncnc3ccc(-c4cnc(OC)c(NS(=O)(=O)c5ccc(F)cc5F)c4)cc23)CC1 [Example 17, (E)-2,4-difluoro-N-(2-methoxy-5-(4-(4-(4-oxohept-2-enoyl)piperazin-1-yl)quinazolin-6-yl)pyridin-3-yl)benzenesulfonamide] | 31 | 313 | 34.6 | 87.9 | 53.3 |  |  |  |  | 
6 | COc1ncc(-c2ccc3ncnc(N4CCC5(CC4)CN(C(=O)/C=C/C(C)=O)C5)c3c2)cc1NS(=O)(=O)c1ccc(F)cc1F [Example 20, (E)-2,4-difluoro-N-(2-methoxy-5-(4-(2-(4-oxopent-2-enoyl)-2,7-diazaspiro[3.5]nonan-7-yl)quinazolin-6-yl)pyridin-3-yl)benzenesulfonamide] | 212 | 239 | 26.2 | 64.1 | 48.7 |  |  |  |  | 
7 | COc1ncc(-c2ccc3ncnc(N4CCN(C(=O)/C=C/C(C)=O)CC4)c3c2)cc1NS(=O)(=O)c1c(F)cccc1F [Example 22, (E)-2,6-difluoro-N-(2-methoxy-5-(4-(4-(4-oxopent-2-enoyl)piperazin-1-yl)quinazolin-6-yl)pyridin-3-yl)benzenesulfonamide] | 82.8 | 149 | 23.7 | 92.1 | 47.9 |  |  |  |  | 
8 | COc1ncc(-c2ccc3ncnc(N4CCC5(CN(C(=O)/C=C/C(C)=O)C5)C4)c3c2)cc1NS(=O)(=O)c1c(F)cccc1F [Example 42] |  | 109 |  |  |  | 16.5 | 79 | 284 | 132 | 
9 | COc1ncc(-c2ccc3ncnc(N4CCN(C(=O)/C=C/C(C)=O)C[C@@H]4C)c3c2)cc1NS(=O)(=O)c1c(F)cccc1F [Example 46, (S,E)-2,6-difluoro-N-(2-methoxy-5-(4-(2-methyl-4-(4-oxopent-2-enoyl)piperazin-1-yl)quinazolin-6-yl)pyridin-3-yl) benzenesulfonamide] |  | 166 | 29.9 | 91.9 | 27.8 | 36.3 |  |  |  | 
10 | COc1ncc(-c2ccc3ncnc(N4CCC5(CC4)CN(C(=O)/C=C/C(C)=O)C5)c3c2)cc1NS(=O)(=O)c1c(F)cccc1F [Example 49, (E)-2,6-difluoro-N-(2-methoxy-5-(4-(2-(4-oxopent-2-enoyl)-2,7-diazaspiro[3.5]nonan-7-yl)quinazolin-6-yl)pyridin-3-yl) benzenesulfonamide] |  | 225 | 32 | 110 | 45.5 | 14.9 |  |  |  | 
11 | COc1ncc(-c2ccc3ncnc(N4CCN(C5CN(C(=O)/C=C/C(C)=O)C5)CC4)c3c2)cc1NS(=O)(=O)c1ccc(F)cc1F [Example 56, (E)-2,4-difluoro-N-(2-methoxy-5-(4-(4-(1-(4-oxopent-2-enoyl)azetidin-3-yl)piperazin-1-yl)quinazolin-6-yl)pyridin-3-yl)benzenesulfon-amide] |  | 471 | 69.7 |  | 116 | 37.2 |  |  |  | 
12 | COc1ncc(-c2ccc3ncnc(N4CCC5(CC=CC5=O)CC4)c3c2)cc1NS(=O)(=O)c1ccc(F)cc1F [Example 70, 2,4-difluoro-N-(2-methoxy-5-(4-(1-oxo-8-azaspiro[4,5]dec-2-en-8-yl)quinazolin-6-yl)pyridin-3-yl)benzenesulfonamide] |  |  | 58.4 | 40.1 | 74.5 | 35 |  |  |  | 
13 | COc1ncc(-c2ccc3ncnc(N4CCN(C(=O)/C=C/C(C)=O)CC4)c3c2)cc1NS(=O)(=O)c1cccc(F)c1F [Example 90, (E)-2,3-difluoro-N-(2-methoxy-5-(4-(4-(4-oxopent-2-enoyl)piperazin-1-yl)quinazolin-6-yl)pyridin-3-yl)benzenesulfonamide] |  |  | 54.5 | 51.9 | 56.2 | 23.7 |  |  |  | 
14 | COc1ncc(-c2ccc3ncnc(N4CCN(C(=O)/C=C/C(C)=O)CC4)c3c2)cc1NS(=O)(=O)c1ccc(C#N)cc1F [Example 123, (E)-4-cyano-2-fluoro-N-(2-methoxy-5-(4-(4-(4-oxopent-2-enoyl)piperazin-1-yl)quinazolin-6-yl)pyridin-3-yl)benzenesulfonamide] |  |  | 21.2 | 84.1 | 118 | 31.4 |  |  |  | 
15 | CC(=O)/C=C/C(=O)N1CCN(c2ncnc3ccc(-c4cnc(OCC(F)(F)F)c(NS(=O)(=O)c5ccc(F)cc5F)c4)cc23)CC1 [Example 159, (E)-2,4-difluoro-N-(5-(4-(4-(4-oxopent-2-enoyl)piperazin-1-yl)quinazolin-6-yl)-2-(2,2,2-trifluoroethoxy)pyridin-3-yl)benzenesulfonamide] |  |  | 172 | 357 | 361 |  |  |  |  | 91.7
16 | COc1ncc(-c2ccc3ncnc(N4CCN(C(=O)/C=C/C(C)=O)CC4)c3c2)cc1NS(C)(=O)=O [Example 170, (E)-N-(2-methoxy-5-(4-(4-(4-oxopent-2-enoyl)piperazin-1-yl)quinazolin-6-yl)pyridin-3-yl)methane-sulfonamide] |  |  | 61.6 | 118 | 380 |  |  |  |  | 17
17 | COC(=O)c1ncc(-c2ccc3ncnc(N4CCN(C(=O)/C=C/C(C)=O)CC4)c3c2)cc1NS(=O)(=O)c1ccc(F)cc1F [Example 181, methyl (E)-3-((2,4-difluoro-phenyl)sulfonamido)-5-(4-(4-(4-oxopent-2-enoyl)piperazin-1-yl)quinazolin-6-yl)picolinate] |  |  | 49.7 | 56.2 | 284 |  |  |  |  | 20.4
